Experiments:
in vivo [1] = settings: rat, plasma, po
in vivo [2] = settings: rat, po
Rattus norvegicus = species on record: Rattus norvegicus; settings: in vivo, po
[3] = Plasma concentration in collagen-induced Lewis rat arthritic model at 3 mg/kg, po qd measured at 4 hrs; type: ADME, organism-based; design: dose 3 mg/kg, route oral
[4] = Plasma concentration in collagen-induced Lewis rat arthritic model at 10 mg/kg, po qd measured at 4 hrs; type: ADME, organism-based; design: dose 10 mg/kg, route oral
[5] = Plasma concentration in collagen-induced Lewis rat arthritic model at 1 mg/kg, po qd measured at 24 hrs; type: ADME, organism-based; design: dose 1 mg/kg, route oral
Plasma [6] = experiment: Plasma concentration in collagen-induced Lewis rat arthritic model at 1 mg/kg, po qd measured immediately post compound dosing; type: ADME, organism-based; design: dose 1 mg/kg, route oral; settings: in vivo
[7] = Plasma concentration in collagen-induced Lewis rat arthritic model at 10 mg/kg, po qd measured at 24 hrs; type: ADME, organism-based; design: dose 10 mg/kg, route oral
physchem [8] = settings: octanol/buffer
[9] = Plasma concentration in collagen-induced Lewis rat arthritic model at 1 mg/kg, po qd measured at 8 hrs; type: ADME, organism-based; design: dose 1 mg/kg, route oral
[10] = Plasma concentration in collagen-induced Lewis rat arthritic model at 10 mg/kg, po qd measured at 8 hrs; type: ADME, organism-based; design: dose 10 mg/kg, route oral
[11] = Plasma concentration in collagen-induced Lewis rat arthritic model at 3 mg/kg, po qd measured at 8 hrs; type: ADME, organism-based; design: dose 3 mg/kg, route oral
[12] = Plasma concentration in collagen-induced Lewis rat arthritic model at 10 mg/kg, po qd measured at 2 hrs; type: ADME, organism-based; design: dose 10 mg/kg, route oral
Plasma [13] = experiment: Plasma concentration in collagen-induced Lewis rat arthritic model at 10 mg/kg, po qd measured immediately post compound dosing; type: ADME, organism-based; design: dose 10 mg/kg, route oral; settings: in vivo
[14] = Plasma concentration in collagen-induced Lewis rat arthritic model at 3 mg/kg, po qd measured at 24 hrs; type: ADME, organism-based; design: dose 3 mg/kg, route oral
[15] = Plasma concentration in collagen-induced Lewis rat arthritic model at 3 mg/kg, po qd measured at 2 hrs; type: ADME, organism-based; design: dose 3 mg/kg, route oral
[16] = Plasma concentration in collagen-induced Lewis rat arthritic model at 1 mg/kg, po qd measured at 2 hrs; type: ADME, organism-based; design: dose 1 mg/kg, route oral
physchem [17] = experiment: physchem
[18] = Plasma concentration in collagen-induced Lewis rat arthritic model at 1 mg/kg, po qd measured at 4 hrs; type: ADME, organism-based; design: dose 1 mg/kg, route oral
Plasma [19] = experiment: Plasma concentration in collagen-induced Lewis rat arthritic model at 3 mg/kg, po qd measured immediately post compound dosing; type: ADME, organism-based; design: dose 3 mg/kg, route oral; settings: in vivo
in vivo [20] = settings: rat, po; remark: listed apart in the source
[21] = Cmax in collagen-induced Lewis rat arthritic model at 3 mg/kg, po qd; type: ADME, organism-based; design: dose 3 mg/kg, route oral; settings: in vivo

Molecule `NC(=O)c1ncc(N[C@@H]2CCCC[C@@H]2N)nc1-c1cc2ccccc2[nH]1` has a CL/F (in vivo [1]) of 44 mL/min/kg, a half-life (in vivo [2]) of 2.8 h and a CL free (Rattus norvegicus) of 255 mL/min/kg.

`Cc1cc(C)nc(Nc2cc(N[C@@H]3CCCC[C@@H]3N)cnc2C(N)=O)c1` showed a concentration at 4 h [3] of 200 nM, a concentration at 4 h [4] of 500 nM and a concentration at 24 h [5] of 5 nM. For the same molecule, the CL/F (in vivo [1]) was 33 mL/min/kg, the concentration (Plasma [6]) was 5 nM and the half-life (in vivo [2]) was 2.7 h. It also gave a concentration at 24 h [7] of 10 nM, a CL free (Rattus norvegicus) of 710 mL/min/kg and a logD at 500 µM (physchem [8]) of 2.1. It also gave a concentration at 8 h [9] of 90 nM, a concentration at 8 h [10] of 500 nM and a concentration at 8 h [11] of 100 nM. For the same molecule, the concentration at 2 h [12] was 200 nM, the concentration (Plasma [13]) was 10 nM and the concentration at 24 h [14] was 7 nM. The concentration at 2 h [15] was 60 nM, the concentration at 2 h [16] was 40 nM and the pKa at 100 µM (physchem [17]) was 9. The concentration at 4 h [18] was 100 nM, the concentration (Plasma [19]) was 7 nM and the bioavailability (in vivo [20]) was 19%. The Cmax [21] was 200 nM.

With `COc1cccc2[nH]c(-c3nc(N[C@@H]4CCOC[C@@H]4N)cnc3C(N)=O)cc12` the CL/F (in vivo [1]) was 25 mL/min/kg, the half-life (in vivo [2]) was 3.5 h and the CL free (Rattus norvegicus) was 100 mL/min/kg. The bioavailability (in vivo [20]) was 29%.
